Assay results reported in publication PMC10687582, “Herpetrione, a New Type of PPARα Ligand as a Therapeutic Strategy Against Nonalcoholic Steatohepatitis” (Research, 2023).

Biological target: T1, PPARα (Homo sapiens, UniProt Q07869)
T1 construct: gene PPARA
T1 sequence (Q07869 200-468 limits assumed): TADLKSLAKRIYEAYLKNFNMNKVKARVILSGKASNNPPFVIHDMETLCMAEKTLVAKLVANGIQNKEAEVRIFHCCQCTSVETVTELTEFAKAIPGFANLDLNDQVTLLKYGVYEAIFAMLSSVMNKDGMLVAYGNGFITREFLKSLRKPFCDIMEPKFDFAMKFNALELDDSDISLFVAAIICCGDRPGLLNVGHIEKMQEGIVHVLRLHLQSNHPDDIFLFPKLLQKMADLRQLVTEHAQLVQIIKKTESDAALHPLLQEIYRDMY
Experiment: ITC (KD […]; WT in the mutant comparison […]); SPR KD […]; CETSA and DARTS in HepG2 lysates
Assay type: binding

Kd: 3.27 µM
SMILES: COc1cc(C(=O)C(CO)c2cc(C3OCC4C(c5ccc(O)c(OC)c5)OCC34)cc(OC)c2O)ccc1O (stereo not shown) [herpetrione]
